Results: patent US20190343908A1, “Therapeutic Combination for the Treatment of Cancer” (Nerium Biotechnology Inc., priority 2011, published 2019)

How the values were obtained:
[1] = tested on: LNCaP prostate cancer cell line; assay: Crystal Violet viability assay, LNCaP; assay type: cell-based, human; settings: for ABSORBANCE: LNCaP, 0.1 μg/mL cisplatin
From the text: (§1) Three different viability assays were chosen to complement each other and yielded results dependent on concentration and cell line: the Methyl Tetrazolium dye assay, the Sulforhodamine B fluorescent dye assay, and the Crystal Violet dye assay.
The Sulforhodamine B and Crystal Violet assays provide information about protein and were used to complement the Methyl-Tetrazolium dye assay. […] It is used for the quantification of cellular proteins of cultured cells. The assay using Crystal Violet, a dye that binds electrostatically to proteins and stains DNA, provides a reliable, simple assay for measuring viability of cells.
(§2) The Methyl Tetrazolium, Sulforhodamine B, and Crystal Violet assays were used to assess cell viabilities. The incubation times were 24 hours, 48 hours, and 72 hours. The Nerium oleander extract Anvirzel™ (a hot water extract of oleander obtained from Salud Integral, Honduras) was tested in concentrations ranging from 0.01 ng/mL to 10 ng/mL.
(§3) Cells were detached by trypsinization (Trypsin-0.25% EDTA, Invitrogen, 25200-072) during the logarithmic phase of culture growth and plated in 96-well plates (18.000 cells/well) (Corning, Costar 359) in a final volume of 200 μl of medium per well. […] The absorbance was measured after 24 hours, 48 hours, and 72 hours of incubation.
For the Crystal Violet assay, the medium was removed from the 96-well plates, the plates rinsed with PBS (Sigma, P3813) and then the cells were […] by the addition of 10% formalin (MERCK, 1.04003.2500) for 20 minutes at RT. Formalin was removed and 0.25% aqueous crystal violet (Sigma, HT901), dissolved in water, was added for 10 minutes at RT. Unbound Crystal Violet was rinsed by washing with water and finally 33% acetic acid was added to dissolve the dye.
(§4) The optical density of each plate was measured on a μQuant spectrophotometer and the data were analyzed with Gen5 software (μQuant Biomolecular Spectrophotometer MQX200 and Gen5™ Microplate Data Collection & Analysis software, BioTek® Instruments. Inc, April 2008). Absorbance was measured at 570 nm for all assays and a second wavelength was measured in order to subtract noise. For the Methyl-Tetrazolium assay this second wavelength was 630 nm and for the Sulforhodamine B and Crystal Violet assays it was 690 nm.

[2] = tested on: COR-L 105 (non-small cell lung carcinoma); assay: Methyl-Tetrazolium viability assay, COR-L 105; assay type: cell-based, human; design: key to MTT Average: absorbance (optical density) at 570 nm, second wavelength subtracted; settings: for MTT Average 24 h / MTT Average 48 h / MTT Average 72 h: COR-L 105, Run 3
From the text: as §1
The Methyl-Tetrazolium dye assay measures the activity of enzymes in mitochondria. The dye precursor is taken up by cells, where it undergoes reduction to the purple formazan. It measures only the mitochondrial activity and, thus, it is not always a reliable indication of whether the cells themselves are alive or dead, since even a recently dead cell has […] enzyme activity in mitochondria. Intracellular glucose concentration, pH, and time before assay all affect the measurements.
as §2, §3
For the Methyl-Tetrazolium assay, the dye (Sigma, M2128; 5 mg/mL, diluted in phosphate-buffered saline) was added to each well and plates were incubated for 3 hours at 37° C. After the end of the incubation period, the medium was discarded and the cells were rinsed with phosphate-buffered saline. Finally, the formazan crystals were dissolved in dimethylsulphoxide (Sigma, D4540).
as §4

SMILES: N.N.[Cl][Pt][Cl] [cisplatin]
- CVE Average ([1]; LNCaP Run 3, 24 h, 0.1 μg/ml CDDP): 0.425
- CVE Average ([1]; LNCaP Run 3, 24 h, 1 μg/ml CDDP): 0.152
- CVE Average ([1]; LNCaP Run 3, 24 h, 10 μg/ml CDDP): 0.171
- CVE Average ([1]; LNCaP Run 3, 24 h, 100 μg/ml CDDP): 0.133
- CVE Average ([1]; LNCaP Run 3, 48 h, 0.1 μg/ml CDDP): 0.387
- CVE Average ([1]; LNCaP Run 3, 48 h, 1 μg/ml CDDP): 0.24
- CVE Average ([1]; LNCaP Run 3, 48 h, 10 μg/ml CDDP): 0.267
- CVE Average ([1]; LNCaP Run 3, 48 h, 100 μg/ml CDDP): 0.3
- CVE Average ([1]; LNCaP Run 3, 72 h, 0.1 μg/ml CDDP): 0.619
- CVE Average ([1]; LNCaP Run 3, 72 h, 1 μg/ml CDDP): 0.312
- CVE Average ([1]; LNCaP Run 3, 72 h, 10 μg/ml CDDP): 0.303
- CVE Average ([1]; LNCaP Run 3, 72 h, 100 μg/ml CDDP): 0.289
- ABSORBANCE ([1]; 48 h): 0.408
- ABSORBANCE ([1]; 72 h): 0.448
- Average CVE 24 h ([1]; Run 1, 0.1 μg/ml CDDP): 0.418
- Average CVE 48 h ([1]; Run 1, 0.1 μg/ml CDDP): 0.541
- Average CVE 72 h ([1]; Run 1, 0.1 μg/ml CDDP): 0.684
- Average CVE 24 h ([1]; Run 1, 1 μg/ml CDDP): 0.327
- Average CVE 48 h ([1]; Run 1, 1 μg/ml CDDP): 0.252
- Average CVE 72 h ([1]; Run 1, 1 μg/ml CDDP): 0.558
- Average CVE 24 h ([1]; Run 1, 10 μg/ml CDDP): 0.289
- Average CVE 48 h ([1]; Run 1, 10 μg/ml CDDP): 0.467
- Average CVE 72 h ([1]; Run 1, 10 μg/ml CDDP): 0.423
- Average CVE 24 h ([1]; Run 1, 100 μg/ml CDDP): 0.359
- Average CVE 48 h ([1]; Run 1, 100 μg/ml CDDP): 0.306
- Average CVE 72 h ([1]; Run 1, 100 μg/ml CDDP): 0.398
- Average CVE 24 h ([1]; Run 2, 0.1 μg/ml CDDP): 0.463
- Average CVE 48 h ([1]; Run 2, 0.1 μg/ml CDDP): 0.408
- Average CVE 72 h ([1]; Run 2, 0.1 μg/ml CDDP): 0.448
- Average CVE 24 h ([1]; Run 2, 1 μg/ml CDDP): 0.227
- Average CVE 48 h ([1]; Run 2, 1 μg/ml CDDP): 0.29
- Average CVE 72 h ([1]; Run 2, 1 μg/ml CDDP): 0.522
- Average CVE 24 h ([1]; Run 2, 10 μg/ml CDDP): 0.278
- Average CVE 48 h ([1]; Run 2, 10 μg/ml CDDP): 0.207
- Average CVE 72 h ([1]; Run 2, 10 μg/ml CDDP): 0.299
- Average CVE 24 h ([1]; Run 2, 100 μg/ml CDDP): 0.276
- Average CVE 48 h ([1]; Run 2, 100 μg/ml CDDP): 0.237
- Average CVE 72 h ([1]; Run 2, 100 μg/ml CDDP): 0.214
- MTT Average 24 h ([2]; 0.1 μg/ml CDDP): 0.056
- MTT Average 48 h ([2]; 0.1 μg/ml CDDP): 0.069
- MTT Average 72 h ([2]; 0.1 μg/ml CDDP): 0.088
- MTT Average 24 h ([2]; 1 μg/ml CDDP): 0.02
- MTT Average 48 h ([2]; 1 μg/ml CDDP): 0.018
- MTT Average 72 h ([2]; 1 μg/ml CDDP): 0.012
- MTT Average 24 h ([2]; 10 μg/ml CDDP): 0.039
- MTT Average 48 h ([2]; 10 μg/ml CDDP): 0.023
- MTT Average 72 h ([2]; 10 μg/ml CDDP): 0.01
- MTT Average 24 h ([2]; 100 μg/ml CDDP): 0.019
- MTT Average 48 h ([2]; 100 μg/ml CDDP): 0.018
- MTT Average 72 h ([2]; 100 μg/ml CDDP): 0.009
- MTT Average ([2]; Run 1, 24 h, 0.1 μg/ml CDDP): 0.083
- MTT Average ([2]; Run 1, 24 h, 1 μg/ml CDDP): 0.023
- MTT Average ([2]; Run 1, 24 h, 10 μg/ml CDDP): 0.057
- MTT Average ([2]; Run 1, 24 h, 100 μg/ml CDDP): 0.015
- MTT Average ([2]; Run 1, 48 h, 0.1 μg/ml CDDP): 0.099
- MTT Average ([2]; Run 1, 48 h, 1 μg/ml CDDP): 0.018
- MTT Average ([2]; Run 1, 48 h, 10 μg/ml CDDP): 0.023
- MTT Average ([2]; Run 1, 48 h, 100 μg/ml CDDP): 0.016
- MTT Average ([2]; Run 1, 72 h, 0.1 μg/ml CDDP): 0.056
- MTT Average ([2]; Run 1, 72 h, 1 μg/ml CDDP): 0.017
- MTT Average ([2]; Run 1, 72 h, 10 μg/ml CDDP): 0.021
- MTT Average ([2]; Run 1, 72 h, 100 μg/ml CDDP): 0.018
- MTT Average ([2]; Run 2, 24 h, 0.1 μg/ml CDDP): 0.056
- MTT Average ([2]; Run 2, 24 h, 1 μg/ml CDDP): 0.02
- MTT Average ([2]; Run 2, 24 h, 10 μg/ml CDDP): 0.039
- MTT Average ([2]; Run 2, 24 h, 100 μg/ml CDDP): 0.019
- MTT Average ([2]; Run 2, 48 h, 0.1 μg/ml CDDP): 0.069
- MTT Average ([2]; Run 2, 48 h, 1 μg/ml CDDP): 0.018
- MTT Average ([2]; Run 2, 48 h, 10 μg/ml CDDP): 0.023
- MTT Average ([2]; Run 2, 48 h, 100 μg/ml CDDP): 0.018
- MTT Average ([2]; Run 2, 72 h, 0.1 μg/ml CDDP): 0.088
- MTT Average ([2]; Run 2, 72 h, 1 μg/ml CDDP): 0.012
- MTT Average ([2]; Run 2, 72 h, 10 μg/ml CDDP): 0.01
- MTT Average ([2]; Run 2, 72 h, 100 μg/ml CDDP): 0.009
